Assay results: the Kinase Knowledgebase extract (Sharma et al. 2016)

Biological target: EGFR (human) (UniProt P00533)
Conditions: a431

EGFR (human), sequence (P00533 whole entry, looked up): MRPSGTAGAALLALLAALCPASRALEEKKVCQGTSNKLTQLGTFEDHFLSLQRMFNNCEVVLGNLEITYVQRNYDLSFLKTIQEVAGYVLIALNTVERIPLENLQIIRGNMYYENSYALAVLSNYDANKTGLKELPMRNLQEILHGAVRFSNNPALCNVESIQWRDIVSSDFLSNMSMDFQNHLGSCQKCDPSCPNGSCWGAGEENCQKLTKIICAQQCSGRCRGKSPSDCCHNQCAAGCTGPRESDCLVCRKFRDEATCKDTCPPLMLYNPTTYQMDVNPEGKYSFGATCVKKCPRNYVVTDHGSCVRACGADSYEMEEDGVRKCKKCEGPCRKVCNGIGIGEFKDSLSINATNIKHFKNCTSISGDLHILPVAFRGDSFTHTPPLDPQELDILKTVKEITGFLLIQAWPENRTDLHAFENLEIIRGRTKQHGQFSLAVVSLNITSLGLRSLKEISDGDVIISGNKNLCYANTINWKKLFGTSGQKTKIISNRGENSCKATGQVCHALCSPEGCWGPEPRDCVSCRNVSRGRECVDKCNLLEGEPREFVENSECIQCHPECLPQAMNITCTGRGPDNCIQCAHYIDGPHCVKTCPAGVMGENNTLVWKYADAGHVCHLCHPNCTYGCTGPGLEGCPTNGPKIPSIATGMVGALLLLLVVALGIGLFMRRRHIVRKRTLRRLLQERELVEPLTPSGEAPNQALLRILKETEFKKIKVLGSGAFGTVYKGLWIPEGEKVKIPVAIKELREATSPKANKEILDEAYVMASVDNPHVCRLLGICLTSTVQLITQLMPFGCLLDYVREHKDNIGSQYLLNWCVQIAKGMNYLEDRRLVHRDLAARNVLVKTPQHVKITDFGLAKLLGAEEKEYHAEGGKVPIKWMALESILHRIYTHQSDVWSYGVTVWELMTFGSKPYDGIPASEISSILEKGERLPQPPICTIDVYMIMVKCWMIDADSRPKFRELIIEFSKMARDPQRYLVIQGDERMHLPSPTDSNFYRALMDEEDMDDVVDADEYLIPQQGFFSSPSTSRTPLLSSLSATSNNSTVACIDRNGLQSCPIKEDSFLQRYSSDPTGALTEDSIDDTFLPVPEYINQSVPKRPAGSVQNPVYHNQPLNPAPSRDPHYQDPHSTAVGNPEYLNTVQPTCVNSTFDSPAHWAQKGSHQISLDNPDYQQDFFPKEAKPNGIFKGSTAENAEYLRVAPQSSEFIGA

SMILES: Cc1nc2cc3nc(-c4cc[cH-]c4)cnc3cc2n1C.[Fe+2].c1cc[cH-]c1
- IC50: > 30 µM

SMILES: Cc1cc2ncc(-c3cc[cH-]c3)nc2cc1C.[Fe+2].c1cc[cH-]c1
- IC50: > 30 µM

SMILES: Cc1nc2cc3ncc(-c4ccccc4)nc3cc2n1C
- IC50: > 30 µM

SMILES: COc1cc2ncc(-c3ccccc3)nc2cc1OC
- IC50: > 100 µM

SMILES: Cc1cc2ncc(-c3ccccc3)nc2cc1C
- IC50: > 100 µM

SMILES: Cc1nc2cc3nc(-c4ccccc4)cnc3cc2n1C
- IC50: > 30 µM

SMILES: c1ccc(-c2cnc3cc4ccccc4cc3n2)cc1
- IC50: > 100 µM

SMILES: Cc1nc2cc3nc(-c4cccs4)cnc3cc2n1C
- IC50: > 30 µM

SMILES: Cc1cc2ncc(-c3cccs3)nc2cc1C
- IC50: > 30 µM

SMILES: Cc1nc2cc3ncc(-c4cccs4)nc3cc2n1C
- IC50: > 30 µM
